Test results from the supplement of paper PMC11061612.

Tests used:
Assay in all cases: Bliss excess, mean over the matrix (fraction); higher = more synergy
[1] = tested on: A704 (Kidney Carcinoma)
How it was run: (§1)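 Cell lines in DMEM/F12 or RPMI with 10% FBS were plated in 1536-well plates, held 24 hours at 37°C, 5% CO2, then given two-drug dose matrices for 72 hours (DMSO typically 0.2%). Viability was read by CellTiter-Glo 2.0 luminescence and scaled as inhibition from 0 (vehicle wells) to 1 (blank wells). Combination Emax is the second-highest inhibition in the matrix; Bliss excess is observed combination effect minus expected EA + EB − EA·EB, EA and EB being single-agent effects.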

[2] = tested on: EBC-1 (Squamous Cell Lung Carcinoma)
How it was run: as §1

[3] = tested on: TGBC11TKB (Gastric Carcinoma)
How it was run: as §1

[4] = tested on: EW-18 (Ewing's Sarcoma)
How it was run: as §1

[5] = tested on: SCC-3 (B-Cell Non-Hodgkin's Lymphoma)
How it was run: as §1

[6] = tested on: OCUM-1 (Gastric Carcinoma)
How it was run: as §1

[7] = tested on: DG-75 (Burkitt's Lymphoma)
How it was run: as §1

[8] = tested on: PFSK-1 (Other Solid Carcinomas)
How it was run: as §1

[9] = tested on: OVISE (Ovarian Carcinoma)
How it was run: as §1

[10] = tested on: GOTO (Neuroblastoma)
How it was run: as §1

[11] = tested on: NCI-H2347 (Lung Adenocarcinoma)
How it was run: as §1

[12] = tested on: SNU-C1 (Colorectal Carcinoma)
How it was run: as §1

[13] = tested on: KP-2 (Pancreatic Carcinoma)
How it was run: as §1

[14] = tested on: IMR-5 (Neuroblastoma)
How it was run: as §1

[15] = tested on: SCC-9 (Oral Cavity Carcinoma)
How it was run: as §1

[16] = tested on: KU-19-19 (Bladder Carcinoma)
How it was run: as §1

[17] = tested on: LOU-NH91 (Squamous Cell Lung Carcinoma)
How it was run: as §1

[18] = tested on: RPMI-7951 (Melanoma)
How it was run: as §1

[19] = tested on: BT-20 (Breast Carcinoma)
How it was run: as §1

[20] = tested on: NCI-H322M (Lung Adenocarcinoma)
How it was run: as §1

SMILES	Bliss excess [1]	Bliss excess [2]	Bliss excess [3]	Bliss excess [4]	Bliss excess [5]	Bliss excess [6]	Bliss excess [7]	Bliss excess [8]	Bliss excess [9]	Bliss excess [10]	Bliss excess [11]	Bliss excess [12]	Bliss excess [13]	Bliss excess [14]	Bliss excess [15]	Bliss excess [16]	Bliss excess [17]	Bliss excess [18]	Bliss excess [19]	Bliss excess [20]
CN(CCO)CC[C@H](CSc1ccccc1)Nc1ccc(S(=O)(=O)NC(=O)c2ccc(N3CCC([C@@H](O)c4ccccc4-c4ccc(Cl)cc4)CC3)cc2)cc1S(=O)(=O)C(F)(F)F [AZD4320] + C[C@@H]1COCCN1C2=NC(=NC(=C2)C3(CC3)[S@](=N)(=O)C)C4=C5C=CNC5=NC=C4 [AZD6738] (first compound max 1 µM, 7x7, partner max 10 µM)	-0.0084	-0.015	0.0135	-0.0539	0.014	-0.0134	-0.0217	0.0409	-0.0206	-0.0126	-0.0256	-0.115	-0.104	0.102	-0.0587	-0.0381	0.0126	-0.0137	0.0778	-0.0335
CN(CCO)CC[C@H](CSc1ccccc1)Nc1ccc(S(=O)(=O)NC(=O)c2ccc(N3CCC([C@@H](O)c4ccccc4-c4ccc(Cl)cc4)CC3)cc2)cc1S(=O)(=O)C(F)(F)F [AZD4320] + C[C@@H](Nc1cc(F)cc(F)c1)c1cc(C(=O)N(C)C)cc2c(=O)cc(N3CCOCC3)oc12 [AZD8186] (first compound max 1 µM, 7x7, partner max 3 µM)	-0.117	0.0576	-0.0032	0.0747	0.0118	-0.0284	0.0548	0.0634	-0.0322	0.0279	0.126	-0.0417	0.0419	0.0508	-0.0094	0.0039	-0.0046	0.0019	0.0586	0.0489
CN(CCO)CC[C@H](CSc1ccccc1)Nc1ccc(S(=O)(=O)NC(=O)c2ccc(N3CCC([C@@H](O)c4ccccc4-c4ccc(Cl)cc4)CC3)cc2)cc1S(=O)(=O)C(F)(F)F [AZD4320] + Cc1cc2ncnn2cc1Nc1ncc2c(n1)n(C1CCOCC1)c(=O)n2C [AZD7648] (first compound max 1 µM, 7x7, partner max 10 µM)	-0.0394	-0.0396	0.0075	-0.0372	-0.0018	-0.0462	0.0021	0.0756	-0.0033	0.075	-0.0312	-0.0376	-0.0338	0.0335	-0.0121	-0.0359	-0.012	-0.0109	0.0391	-0.0426
COc1nnc2ccc(N3CCC(c4ccc(OCCN5CCN(C)C(=O)[C@H]5C)cc4)CC3)nn12 [AZD5153] + C=CCn1c(=O)c2cnc(Nc3ccc(N4CCN(C)CC4)cc3)nc2n1-c1cccc(C(C)(C)O)n1 [AZD1775] (first compound max 1 µM, partner max 1 µM)	-0.0375	0.005	-0.0699	-0.0163	-0.046	-0.0217	-0.0437	-0.109	-0.0081	-0.0756	0.0293	-0.0563	-0.0288	-0.0213	0.0175	-0.121	0.0216	-0.0223	-0.0856	-0.106
COc1nnc2ccc(N3CCC(c4ccc(OCCN5CCN(C)C(=O)[C@H]5C)cc4)CC3)nn12 [AZD5153] + CC1(C)CCC(CN2CCN(c3ccc(C(=O)NS(=O)(=O)c4ccc(NCC5CCOCC5)c([N+](=O)[O-])c4)c(Oc4cnc5[nH]ccc5c4)c3)CC2)=C(c2ccc(Cl)cc2)C1 [Venetoclax] (first compound max 1 µM, 7x7, partner max 1 µM)	-0.0016	-0.0413	-0.0783	-0.0371	-0.0213	-0.0456	-0.063	-0.0853	-0.013	-0.065	-0.11	-0.061	-0.0381	-0.0119	-0.0478	-0.0567	-0.0758	-0.0292	-0.071	-0.076
COc1nnc2ccc(N3CCC(c4ccc(OCCN5CCN(C)C(=O)[C@H]5C)cc4)CC3)nn12 [AZD5153] + CCN(CCO)CCCOc1ccc2c(Nc3cc(CC(=O)Nc4cccc(F)c4)[nH]n3)ncnc2c1 [AZD2811] (first compound max 1 µM, 7x7, partner max 1 µM)	0.0278	-0.0274	-0.0962	-0.0273	0.0474	-0.0194	0.0144	-0.0478	-0.017	-0.0561	-0.0549	-0.0694	-0.0065	-0.0151	-0.0476	-0.0741	-0.0363	-0.0243	-0.0105	-0.0612
COc1nnc2ccc(N3CCC(c4ccc(OCCN5CCN(C)C(=O)[C@H]5C)cc4)CC3)nn12 [AZD5153] + C[C@@H]1COCCN1C2=NC(=NC(=C2)C3(CC3)[S@](=N)(=O)C)C4=C5C=CNC5=NC=C4 [AZD6738] (first compound max 1 µM, 7x7, partner max 10 µM)	-0.0278	0.0351	-0.046	-0.0306	-0.0195	0.0413	-0.0203	-0.0115	-0.0213	-0.0422	0.0599	-0.0404	0.0565	0.0121	0.0394	-0.0645	-0.0012	0.0423	-0.0267	-0.102
COc1nnc2ccc(N3CCC(c4ccc(OCCN5CCN(C)C(=O)[C@H]5C)cc4)CC3)nn12 [AZD5153] + Cc1c2c(nn1C)CSCc1cc(n(C)n1)CSc1cc(c3ccccc3c1)OCCCc1c(C(=O)O)n(C)c3c-2c(Cl)ccc13 [AZD5991] (first compound max 1 µM, 7x7, partner max 1 µM)	-0.0297	-0.0528	-0.0666	0.0235	0.029	0.0024	-0.0432	0.0454	-0.039	-0.0096	-0.0198	-0.0376	0.0098	-0.0178	-0.0322	-0.0634	-0.0449	-0.0575	0.0213	-0.0517
COc1nnc2ccc(N3CCC(c4ccc(OCCN5CCN(C)C(=O)[C@H]5C)cc4)CC3)nn12 [AZD5153] + Cn1cnc2c(F)c(Nc3ccc(Br)cc3Cl)c(C(=O)NOCCO)cc21 [Selumetinib] (first compound max 1 µM, 7x7, partner max 10 µM)	-0.0077	0.0979	0.0671	-0.0364	-0.053	-0.0347	-0.0177	0.0031	-0.0304	-0.0522	-0.0361	-0.0447	-0.0001	-0.0047	0.042	-0.0007	-0.0463	0.02	0.0309	0.0052
Cc1c2c(nn1C)CSCc1cc(n(C)n1)CSc1cc(c3ccccc3c1)OCCCc1c(C(=O)O)n(C)c3c-2c(Cl)ccc13 [AZD5991] + CC1(C)CCC(CN2CCN(c3ccc(C(=O)NS(=O)(=O)c4ccc(NCC5CCOCC5)c([N+](=O)[O-])c4)c(Oc4cnc5[nH]ccc5c4)c3)CC2)=C(c2ccc(Cl)cc2)C1 [Venetoclax] (first compound max 1 µM, 7x7, partner max 1 µM)	-0.0306	-0.0333	0.0364	0.046	0.017	-0.0182	-0.0246	0.0721	0.0031	0.0588	-0.0188	-0.0458	0.0157	0.0656	-0.0278	0.0578	-0.0589	-0.0568	0.0755	-0.0378
Cc1c2c(nn1C)CSCc1cc(n(C)n1)CSc1cc(c3ccccc3c1)OCCCc1c(C(=O)O)n(C)c3c-2c(Cl)ccc13 [AZD5991] + CN(C)CCCOc1ccc(-c2ccc3ncc4c(c3c2)n(C2CCOCC2)c(=O)n4C)cn1 [AZD0156] (first compound max 1 µM, 7x7, partner max 1 µM)	-0.0475	0.0581	0.007	-0.0213	0.0027	-0.016	-0.0286	0.0228	-0.0007	-0.0418	-0.0188	-0.0652	-0.0125	-0.0194	-0.0237	0.0263	0.01	-0.0382	0.0258	-0.0017
Cc1c2c(nn1C)CSCc1cc(n(C)n1)CSc1cc(c3ccccc3c1)OCCCc1c(C(=O)O)n(C)c3c-2c(Cl)ccc13 [AZD5991] + C[C@@H]1COCCN1C2=NC(=NC(=C2)C3(CC3)[S@](=N)(=O)C)C4=C5C=CNC5=NC=C4 [AZD6738] (first compound max 1 µM, 7x7, partner max 10 µM)	-0.0522	0.039	-0.0218	-0.0141	0.0538	-0.0052	-0.0464	0.0139	-0.0118	-0.0213	-0.0489	-0.0626	0.0446	0.0245	0.0134	-0.0013	0.0408	0.0095	0.0977	0.0012
Cc1c2c(nn1C)CSCc1cc(n(C)n1)CSc1cc(c3ccccc3c1)OCCCc1c(C(=O)O)n(C)c3c-2c(Cl)ccc13 [AZD5991] + C[C@@H](Nc1cc(F)cc(F)c1)c1cc(C(=O)N(C)C)cc2c(=O)cc(N3CCOCC3)oc12 [AZD8186] (first compound max 1 µM, 7x7, partner max 3 µM)	-0.0291	0.0298	0.0005	0.0122	-0.0036	-0.0302	0.0008	0.0429	0.0069	-0.0589	0.0251	-0.0148	0.0193	-0.0006	-0.0058	0.0033	-0.0542	0.0878	0.0382	0.0225
Cc1c2c(nn1C)CSCc1cc(n(C)n1)CSc1cc(c3ccccc3c1)OCCCc1c(C(=O)O)n(C)c3c-2c(Cl)ccc13 [AZD5991] + Cc1cc2ncnn2cc1Nc1ncc2c(n1)n(C1CCOCC1)c(=O)n2C [AZD7648] (first compound max 1 µM, 7x7, partner max 10 µM)	-0.0914	-0.0127	-0.0954	-0.0254	-0.0119	-0.0093	0.0116	-0.0199	-0.043	-0.02	-0.0472	-0.0742	-0.0103	0.0226	-0.0716	0.0025	-0.0307	-0.0317	-0.0139	-0.05
